Source: ChEMBL document CHEMBL3507680, “University of Dundee, Gates Library screen for HepG2 cell viability”

Assay: Human HepG2 cell viability assay in 384 well format
Format: toxicity, cell-based
Design: dose 125 nL, time 70.5 hour; concentration not given beside the values
Conditions: HepG2 cells, read-out: Inhibition

Compound	cytotoxicity at 70.5 h
Cc1nn(C)c2nc(N3CCN(Cc4nccn4C)CC3)sc12	-8.28%
CCC(=O)N1CCCC1c1n[nH]cc1-c1ccccc1F (centres undefined)	-6.39%
CCCN1CCN(C(=O)c2ccnc(N)c2)[C@H]2CS(=O)(=O)C[C@H]21	2.28%
c1ccc(-c2nc(CN3CCc4c(ncn4C4CC4)C3)cs2)cc1	5.22%
CCc1cnc(N)nc1NCCCn1nc(C)nc1C	-9.39%
CCNc1ncc(C(=O)NC(CC)c2ccnn2C)cn1 (centres undefined)	-5.36%
CS(=O)(=O)N1C[C@@H]2CC[C@H](C1)N(Cc1ccc3nsnc3c1)C2	18.3%
Cn1c(Cn2ncc(N3CCCC3)cc2=O)nc2ccccc21	25.6%
CC(C)Cc1nc(CN2CCc3onc(-c4cccc(F)c4)c3C2)no1	-2.69%
Cc1nc(CN2CCC(CNC(=O)Nc3ccccn3)CC2)oc1C	-8.33%
CN(C)C1CCN(C(=O)c2cc(-c3ccn(C)n3)n3ccccc23)CC1	-6.13%
CSCc1noc(-c2ccc(C)c(N3CCNC3=O)c2)n1	-9.43%
CCN(C1CCN(Cc2ncc(C(C)(C)C)o2)CC1)S(C)(=O)=O	-7.94%
CCC1CCN(CCn2cnc3c(C)csc3c2=O)CC1	-6.08%
Cc1ccc(C(=O)NCCS(C)(=O)=O)c(=O)[nH]1	-5.11%
CC(C)OCCC(=O)N(C)c1ccc(F)c(Cl)c1	-4.66%
O=C1CCC2(CCCN(C(=O)c3ccc[nH]3)C2)CN1CCc1c[nH]cn1 (centres undefined)	16.9%
CS(=O)(=O)c1cnc(N2CCCC2)nc1C1CCN(C(=O)C2CC2)CC1	0.997%
Cc1noc(C)c1C(C)NC(=O)N1CCC(NC(=O)c2ccsc2)CC1 (centres undefined)	-6.79%
CC1=N[C@@]2(CC[C@@H]3CN(Cc4ccccc4F)C[C@@H]32)C(=O)N1CC1CC1	-0.339%
Cc1ccc2c(c1)C(=O)NCC1(CCN(C(=O)c3ccnn3C)CC1)O2	-4.65%
Cc1noc(C(C)Nc2ccc(N3CCOCC3)cc2C)n1 (centres undefined)	-4.53%
CCCNCc1cn(Cc2ccccc2)nc1-c1cccnc1	-8.99%

Compound	cytotoxicity at 70.5 h
Cc1ccccc1OCC(=O)NCC(c1ccc(N(C)C)cc1)N(C)C (centres undefined)	29.2%
Cn1cnnc1CNC(=O)c1ccc(Br)cc1O	-3.54%
Cc1nc(CN2CCN(C(C)C(=O)NC3CCCC3)CC2)cs1 (centres undefined)	-5.82%
CNC(=O)c1ccc(C2CN(C(=O)COC)CCO2)nc1 (centres undefined)	-16.7%
Cc1ccc(NC(=O)N2CCN(Cc3ccccn3)CC2)cc1Cl	30.4%
NC(=O)C(NC(=O)CSCc1ccc(Cl)s1)c1ccccc1 (centres undefined)	-1.53%
OCC1(CNC2CCc3cc4c(cc32)OCCO4)CC1 (centres undefined)	22.1%
CN(C)c1cnn(CC(=O)N2CCCCCC2)c(=O)c1	-0.929%
O=C(O)c1ccc2[nH]cc(CN3CCOCC3)c2c1	2.68%
CN(Cc1nnc(C2CC2)n1C)C1CCN(CCc2ccccc2)C1 (centres undefined)	-3.03%
CN(C)C(CNC(=O)CCNC(=O)OCC(F)(F)F)c1ccsc1 (centres undefined)	-0.647%
CCc1cn[nH]c1C1CCCN(C(=O)c2cnc(NC(C)C)nc2)C1 (centres undefined)	-5.16%
CSCC[C@@H]1CN2CCC[C@H]2CN1Cc1cn(C)nc1C	19.2%
c1cc(-c2nccn2CCc2nc3c(s2)CCC3)ccn1	12.9%
Cc1n[nH]cc1CNCc1cccc(OCC(F)(F)F)c1	-0.995%
NC(=O)c1cc2c(nc1N)CCN(C(=O)C1CCCCC1)C2	7.07%
Cc1noc(C)c1-c1cc(CCC2CN(C(=O)CN)CCO2)ncn1 (centres undefined)	-2.94%
CC(NC(=O)Cc1cccs1)(C(N)=O)c1cccc(Cl)c1 (centres undefined)	1.57%
Cn1nc(C2CC2)c2c1NC(=O)CC2c1cc(CN2CCCC2)cs1 (centres undefined)	-8.83%
CC(C)(C)c1csc(CCNC(=O)C(c2ccccc2)n2cnnn2)n1 (centres undefined)	-0.915%
Cc1nnc(NCc2ccc(F)cc2)o1	-2.93%
COCC(=O)N1CCN(C(C)C(=O)NC(C)C)CC1 (centres undefined)	5.85%
Cc1nc2sccn2c1C(=O)N1CCc2c(nc(N(C)C)[nH]c2=O)C1	1.53%

Compound	cytotoxicity at 70.5 h
CC(C)CN1CC[C@H]2OCC[C@@H](C(=O)N3CCCO3)[C@@H]2C1	-18.2%
Nc1nccnc1CC1CCCN(Cc2c[nH]c3ccccc23)C1 (centres undefined)	-9.09%
CCN(Cc1ccoc1)C(=O)c1cc2c(c(S(N)(=O)=O)c1)CCC2	-8.02%
CCOc1ccnc(N2CCCN(c3nc(CC)ns3)CC2)n1	-2.91%
Brc1cnc(NCc2ccccc2N2CCOCC2)nc1	-1.21%
Cc1ccc(CN(Cc2ncc[nH]2)C2CC(C)(C)NC(C)(C)C2)o1	9.13%
NCc1ccc(N2CCN(c3ncccn3)CC2)c(F)c1	6.72%
CCN1CCOC(CNCc2cccc(OCc3ccccn3)c2)C1 (centres undefined)	-6.84%
CCOCc1cc(CN2CCn3c(CO)nnc3C2)ccc1OC	1.27%
COc1ccc(C(C)NC(=O)c2nn(C)c(C)c2Br)cc1 (centres undefined)	-2.4%
COCCC(=O)N1CCCC1c1cccc(C)c1C (centres undefined)	23.9%
Cc1cccc(N2CC3(CCN(S(=O)(=O)c4cccs4)C3)CC2=O)c1 (centres undefined)	-2.22%
CC1(c2ccccc2)CCC(=O)N(CCN2CCOC2=O)C1 (centres undefined)	-2.39%
Cc1nc(C)n(CC2CCCN2CC(=O)Nc2cc(C)on2)n1 (centres undefined)	-8.96%
CCOc1ccccc1C(CC(=O)N(C)c1ccccc1)NC(C)=O (centres undefined)	15.9%
CN(Cc1ccc(Br)s1)Cn1nc(-c2ccc(F)cc2)oc1=O	-4.35%
Cc1cnn(CC(C)NCc2ccc(OCc3ccncc3)cc2)c1 (centres undefined)	30.2%
CC(C)C(NCc1ccc(Cn2cncn2)cc1)c1ccccc1 (centres undefined)	-3.88%
O=C(Nc1ccc2c(c1)C(=O)NC2=O)c1cccs1	-4.03%
COC(=O)c1sc(C(F)(F)F)cc1OC	-12.4%
Cn1c(CN2CCOC[C@H]2c2nc(C(C)(C)C)co2)nc2ccccc21	-0.449%
COC(=O)CCC(=O)N(C/C=C/c1ccccc1)CCO	23.1%
CC(C)COC(C)C(=O)N1CCCC1 (centres undefined)	-7.16%

Compound	cytotoxicity at 70.5 h
CCc1c(C)n(CCC#N)c2nc3ccccc3n2c1=O	-9.18%
CC(C)c1nc(C(=O)N(C)c2ccc(Br)cn2)cs1	-8.09%
COCCN1CCCn2c(nc(CNC(=O)COC)cc2=O)C1	-2.45%
c1cnc(NCc2nnn3c2CN(CC2CC2)CCC3)nc1	-4.25%
CC(C)n1cnnc1CN1CCC2(CCCN(C3CCCCC3)C2=O)C1 (centres undefined)	-2.59%
CN(C)Cc1cc(C2CCCN(S(=O)(=O)c3cccc(Cl)c3)C2)nn1C (centres undefined)	-14.6%
CC(=O)N1CCC(NC(=O)N(C)Cc2c(C)noc2C)CC1	-8.21%
CC(NC(=O)Nc1ccc(-c2csnn2)cc1)C(=O)NC(C)(C)C (centres undefined)	-9.46%
O=c1n(CC2CCCCO2)nc(CC2CCNCC2)n1-c1ccccc1 (centres undefined)	-6.56%
CCCOc1cc(Cl)c(CN2CCNC(C(=O)NC3CC3)C2)cc1OC (centres undefined)	-10.6%
Cn1ncc2c(NCC3CCCN3c3cccnn3)ncnc21 (centres undefined)	-3.62%
Clc1cccnc1N1CCC(NCc2cccc3cn[nH]c23)C1 (centres undefined)	-4.87%
CNC(=O)[C@@H]1C[C@@H](N)CN1C(=O)CCSCc1ccc(F)cc1	7.46%
COCCCn1ccc(NC(=O)NCCn2ccnc2)n1	-8.92%
COCCC(=O)N1Cc2ccccc2OC2(CCOCC2)C1	-0.482%
Cc1noc(C2CCN(C(=O)c3cc(Br)ccc3F)CC2)n1	-2.54%
Cn1ccc2ccc(C(=O)N3CCN(C(=O)OC(C)(C)C)CC3)cc21	3.39%
O=C(CC1CCCC1)N1C[C@H](Oc2cccnc2)[C@H]2OCCC[C@H]21	-16.9%
CC(C)(NS(C)(=O)=O)c1nc(-c2ccc(F)c(F)c2)no1	-5.95%
COCCCNC(=O)Nc1ccc(F)c(C(N)=O)c1	0.915%
COCCC(=O)Nc1cnn(COc2ccc(F)cc2Cl)c1	27.4%
O=C(NCCO)Nc1ccc(Br)c(F)c1	-0.649%
Cc1cc(NCCc2c(C)n[nH]c2C)nc(-c2cccnc2)n1	20.8%

Compound	cytotoxicity at 70.5 h
COC(=O)CN1CCC(C(F)(F)F)CC1	-2.55%
CC(C)Cc1ncc2c(n1)CN(C(=O)Cn1c(=O)oc3ccccc31)C2	-14.5%
CN(Cc1n[nH]c2c1CCCC2)c1nc(C2CC2)nc2c1CCNCC2	-1.06%
CCc1nc(C2CCCN2c2ncc(C(F)(F)F)cc2Cl)no1 (centres undefined)	1.13%
CSc1ccc(OC(C)C(=O)Nc2c(C)n[nH]c2C)cc1 (centres undefined)	-3.26%
CC(C)c1cc(C(=O)N2CCCN(CCCc3ccccc3)CC2)[nH]n1	-8.74%
COCC(NC(=O)c1cc(NC(C)=O)ccc1Cl)c1ccnn1C (centres undefined)	-1.93%
Cc1ccc(S(=O)(=O)n2ccn(C(=O)CC(C)C)c2=O)cc1	-19.3%
Cc1ccc(-c2ccnc(N3CCC4(CC3)CNC(=O)O4)n2)c(C)n1	-9.43%
CN1CCN(CCCNS(=O)(=O)Cc2ccccc2F)CC1	-0.252%
Cc1noc(-c2ccc(N3CCCC(C(=O)c4nccn4C)C3)nc2)n1 (centres undefined)	-8.49%
CC(CCc1ccccc1F)C(=O)NS(C)(=O)=O (centres undefined)	-8.18%
O=C(Nc1ccc(CCN2CCSCC2)cc1)NC1CC1	-11.9%
COc1cccc(C(=O)N2CCCCC2CNC(N)=O)c1 (centres undefined)	9%
COCCN1CCC2(CC1)CC(NCc1cncn1C)c1ccccc12 (centres undefined)	1.8%
Cc1noc([C@@H]2C[C@H](NC(=O)NC3CCCCC3)CN2C)n1	-7.54%
COc1cccc(COCC(=O)NC(C(N)=O)c2ccccc2F)c1 (centres undefined)	12%
c1cnc(CC2COCCN(C3CCCCC3)C2)cn1 (centres undefined)	1.48%
Cc1n[nH]c(C)c1NC(=O)CN(CC(O)c1ccc(F)cc1)C1CC1 (centres undefined)	-3.36%
CCC(O)CN1CCN(C(=O)c2cccc3[nH]ncc23)CC1 (centres undefined)	-10.6%
Cc1c(C(=O)N[C@@H]2CC[C@@H](N3CCCC3)[C@@H]2O)[nH]c2ccc(F)cc12	6.16%
CCC[C@@H]1CN(c2ncnc3sccc23)C[C@H]1NS(C)(=O)=O	-4.58%
